Our source for the IC50 values is publication PMC8102404, “A key role for the transporter OAT1 in systemic lipid metabolism” (The Journal of Biological Chemistry, 2021).

As a reminder, the IC50 is the concentration at which inhibition is half-maximal. A low value points to inhibition by little substance.

The target in the test is T1, Organic anion transporter 1 (hOAT1) (Homo sapiens, UniProt Q4U2R8).
T1 construct: gene SLC22A6
T1 sequence (Q4U2R8 1-563): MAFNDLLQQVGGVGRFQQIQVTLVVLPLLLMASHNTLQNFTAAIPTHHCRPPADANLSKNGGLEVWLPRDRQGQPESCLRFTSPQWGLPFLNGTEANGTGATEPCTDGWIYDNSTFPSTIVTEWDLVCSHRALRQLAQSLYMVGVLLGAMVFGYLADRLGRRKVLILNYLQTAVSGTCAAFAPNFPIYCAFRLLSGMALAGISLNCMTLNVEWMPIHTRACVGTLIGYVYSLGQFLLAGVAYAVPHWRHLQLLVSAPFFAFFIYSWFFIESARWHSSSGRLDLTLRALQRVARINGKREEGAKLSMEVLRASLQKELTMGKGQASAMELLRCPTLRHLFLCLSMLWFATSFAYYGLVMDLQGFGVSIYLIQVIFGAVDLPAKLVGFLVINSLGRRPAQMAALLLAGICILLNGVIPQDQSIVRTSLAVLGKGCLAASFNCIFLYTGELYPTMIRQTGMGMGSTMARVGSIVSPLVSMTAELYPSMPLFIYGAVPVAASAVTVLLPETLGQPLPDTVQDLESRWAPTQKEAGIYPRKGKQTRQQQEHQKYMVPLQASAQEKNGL
The experiment in a line: competitive inhibition of 6-carboxyfluorescein uptake in hOAT1-overexpressing HEK293 cells. Format: cell-based.

`CCCCCCCCCCCCCCC(=O)O` [Pentadecanoic acid]: the 50% inhibitory concentration (IC50) is 103 µM.
